For assay [1], the system named is cotton. Briefly: Preemergent control of plant species. The class given is in vivo, Gossypium spp. To be noted: Gossypium hirsutum, pre-emergence, 336 h; 0.25 lb/acre; read-out: percent preemergent control. The method, boiled down: (§1)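 Growth reduction relative to untreated plants of the same species, assessed two weeks after treatment, defines the control value. Compositions, mostly aqueous emulsions, were deposited uniformly on seeded greenhouse soil beds at the tabulated rates, with a water-treated bed as reference.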

The test system of assay [2] is rape. Briefly: Preemergent control of plant species. Particulars: Brassica napus, pre-emergence, 336 h; 0.25 lb/acre; read-out: percent preemergent control. The class given is in vivo, Brassica napus. The method, boiled down: as §1
The test system of assay [3] is soybean. Put plainly: Preemergent control of plant species. Particulars: Glycine max, pre-emergence, 336 h; 0.25 lb/acre; read-out: percent preemergent control. The class given is in vivo, Glycine max. In a few lines:
as §1

The test system of assay [4] is sugar beet. Put plainly: Preemergent control of plant species. The class given is in vivo, Beta saccharifera. Particulars: Beta vulgaris, pre-emergence, 336 h; 0.25 lb/acre; read-out: percent preemergent control. In a few lines: as §1
The subject of assay [5] is jimsonweed. Put plainly: Preemergent control of plant species. The class given is in vivo, Datura stramonium. To be noted: Datura stramonium, pre-emergence, 336 h; 0.25 lb/acre; read-out: percent preemergent control. The method, boiled down: as §1
In assay [6] the test system is annual morning glory. Briefly: Preemergent control of plant species. The class given is in vivo, Ipomoea spp. To be noted: Ipomoea, pre-emergence, 336 h; 0.25 lb/acre; read-out: percent preemergent control. The method, boiled down:
as §1

Assay [7] concerns velvetleaf. Put plainly: Preemergent control of plant species. The class given is in vivo, Abutilon theophrasti. To be noted: Abutilon theophrasti, pre-emergence, 336 h; 0.25 lb/acre; read-out: percent preemergent control. In a few lines: as §1
Assay [8] concerns corn. Briefly: Preemergent control of plant species. The class given is in vivo, Zea mays. To be noted: Zea mays, pre-emergence, 336 h; 0.25 lb/acre; read-out: percent preemergent control. The method, boiled down:
as §1

In assay [9] the test system is rice. Put plainly: Preemergent control of plant species. To be noted: Oryza sativa, pre-emergence, 336 h; 0.25 lb/acre; read-out: percent preemergent control. The class given is in vivo, Oryza sativa. In a few lines: as §1
The test system of assay [10] is sorghum. Put plainly: Preemergent control of plant species. The class given is in vivo, Sorghum vulgare. To be noted: Sorghum, pre-emergence, 336 h; 0.25 lb/acre; read-out: percent preemergent control. In a few lines: as §1
The test system of assay [11] is wheat. Briefly: Preemergent control of plant species. The class given is in vivo, Triticum aestivum. Particulars: Triticum aestivum, pre-emergence, 336 h; 0.25 lb/acre; read-out: percent preemergent control. The method, boiled down: as §1
In assay [12] the test system is barnyardgrass. Briefly: Preemergent control of plant species. Particulars: Echinochloa crus-galli, pre-emergence, 336 h; 0.25 lb/acre; read-out: percent preemergent control. The class given is in vivo, Echinochloa crusgalli. The method, boiled down:
as §1

For assay [13], the system named is crabgrass. Briefly: Preemergent control of plant species. The class given is in vivo, Digitaria spp. To be noted: Digitaria sanguinalis, pre-emergence, 336 h; 0.25 lb/acre; read-out: percent preemergent control. The protocol: (§2) The seeds of various species of plants were planted in beds of good agricultural soil in a greenhouse. A number of compositions of the present invention, generally in the nature of an aqueous emulsion, were applied at rates listed in the table so as to deposit a predetermined amount of active ingredients uniformly throughout the surface of the bed. Another seed bed was treated only with water to serve as a control. After treatment the seed beds were maintained for two weeks under greenhouse conditions conducive for good plant growth and watered as necessary. Control refers to the reduction in growth compared to the observed results of the same untreated species.

The test system of assay [14] is johnson grass. Briefly: Preemergent control of plant species. To be noted: Sorghum halepense, pre-emergence, 336 h; 0.25 lb/acre; read-out: percent preemergent control. The class given is in vivo, Sorghum halepense. In a few lines: as §1
The test system of assay [15] is wild oats. Put plainly: Preemergent control of plant species. To be noted: Avena fatua, pre-emergence, 336 h; 0.25 lb/acre; read-out: percent preemergent control. The class given is in vivo. In a few lines: as §1
Assay [16] deals with yellow foxtail. Put plainly: Preemergent control of plant species. The class given is in vivo, Setaria lutescens. Particulars: Setaria, pre-emergence, 336 h; 0.25 lb/acre; read-out: percent preemergent control. In a few lines:
as §1

The subject of assay [17] is yellow nutsedge. Briefly: Preemergent control of plant species. The class given is in vivo, Cyperus esculentus. Particulars: Cyperus, pre-emergence, 336 h; 0.25 lb/acre; read-out: percent preemergent control. In a few lines:
as §1

Assay [18] deals with pigweed. Briefly: Preemergent control of plant species. The class given is in vivo, Amaranthus spp. To be noted: Amaranthus retroflexus, pre-emergence, 336 h; 0.25 lb/acre; read-out: percent preemergent control. How it is done: as §2
Assay [19] deals with nitrification of ammonium nitrogen. Put plainly: Suppression of nitrification of ammonium nitrogen in soil. Particulars: 27° C. In a few lines:
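Soil (20 g) moistened to its 1/3 bar tension value, mixed with test chemical and incubated sealed for two weeks at 27° C. Nitrate extracted with ammonium sulfate solution and measured by nitrate-specific ion electrode; value given as % NH4-N remaining.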

`COc1cccc(C(F)(F)F)c1NS(=O)(=O)c1nc2nc(C)cc(C)n2n1` [Compound 104]: the plant injury at 280.212 g/ha in assay [1], in [2], in [3], in assay [4], in assay [8] and in assay [9] was 100% each time. The plant injury at 280.212 g/ha in assay [10] and in assay [11] was 100% throughout. Also, the pest or weed control at 280.212 g/ha in assay [5], in assay [6], in assay [7], in [12], in assay [13] and in assay [14] was 100% throughout. Also, the pest or weed control at 280.212 g/ha in assay [15], in [16] and in assay [17] was 100% in each case.

As to `Cc1cc(C)n2nc(S(=O)(=O)Nc3c(Cl)cc(F)cc3Cl)nc2n1` [Compound 44], the plant injury at 280.212 g/ha in [1] is 85%; in assay [2] it was 93%; in assay [3], 80%; in assay [4], 97%; in [8] it was 10%; in [9] it was 70%. Also, the plant injury at 280.212 g/ha in assay [10] amounted to 93%; in assay [11], 70%. The pest or weed control at 280.212 g/ha in assay [5] stood at 100%; in assay [6], 20%; in [18], 95%; in assay [7], 0%; in assay [12] it was 40%; in assay [13] it was 90%. Also, the pest or weed control at 280.212 g/ha in assay [14] came out at 80%; in assay [15], 40%; in assay [16] it was 70%; in [17] it was 90%. Also, the “% NH4-N Remaining After 2 Weeks Incubation” value in assay [19] (0.01 ppm) is listed as 0%; in assay [19] (0.1 ppm) it was 42%; in [19] (1 ppm), 71%; in assay [19] (10 ppm), 95%.

On to `Cc1cc(C)n2nc(S(=O)(=O)Nc3ccccc3C(N)=O)nc2n1` [Compound 37], for which the plant injury at 280.212 g/ha in assay [1] was found to be 95%; in assay [2] it was 95%; in assay [3], 95%; in assay [4], 97%; in [8], 95%; in assay [9] it was 97%. Moreover, the plant injury at 280.212 g/ha was 95% in assay [10] and 0% in assay [11]. Also, the pest or weed control at 280.212 g/ha in assay [5] came out at 100%; in assay [6], 90%; in [18] it was 100%; in [7], 95%; in assay [12], 97%; in [13], 70%. Also, the pest or weed control at 280.212 g/ha in assay [14] worked out at 95%; in assay [15], 0%; in assay [16], 97%; in [17] it was 100%. In addition, the “% NH4-N Remaining After 2 Weeks Incubation” value in [19] (0.01 ppm) is recorded as 0%; in assay [19] (0.1 ppm) it was 0%; in [19] (1 ppm), 7%; in assay [19] (10 ppm) it was 44%.

Regarding `Cc1cccc(Cl)c1NS(=O)(=O)c1nc2nc(C)c(C)c(C)n2n1` [Compound 113], the plant injury at 280.212 g/ha was 30% in assay [1]; 90% in [2]; 0% in assay [3]; 100% in assay [4]; 0% in assay [8]; 40% in [9]. In addition, the plant injury at 280.212 g/ha in [10] and in [11] was 0% each time. In addition, the pest or weed control at 280.212 g/ha in [5] was determined as 0%; in assay [6], 0%; in assay [18], 100%; in assay [7], 60%; in [12], 20%; in assay [13], 90%. Further, the pest or weed control at 280.212 g/ha was 50% in assay [14], 0% in assay [15], 50% in assay [16] and 50% in assay [17]. The “% NH4-N Remaining After 2 Weeks Incubation” value in [19] (0.06 ppm) is 16%; in assay [19] (0.25 ppm), 39%; in [19] (1 ppm) it was 69%; in assay [19] (4 ppm), 86%.

Regarding `COCc1cccc(Cl)c1NS(=O)(=O)c1nc2nc(C)cc(C)n2n1` [Compound 91], the plant injury at 280.212 g/ha worked out at 100% in assay [1]; 100% in assay [2]; 100% in [3]; 100% in [4]; 30% in [8]; 50% in assay [9]. For the same compound, the plant injury at 280.212 g/ha in assay [10] came to 0%; in assay [11] it was 20%. For the same compound, the pest or weed control at 280.212 g/ha turned out to be 40% in assay [5]; 100% in [18]; 70% in assay [7]; 40% in assay [13]; 0% in assay [14]; 70% in assay [15]. For the same compound, the pest or weed control at 280.212 g/ha in assay [16] was 100%. Also, the “% NH4-N Remaining After 2 Weeks Incubation” value in [19] (0.06 ppm) is reported as 15%; in assay [19] (0.25 ppm), 46%; in [19] (1 ppm), 55%; in assay [19] (4 ppm) it was 80%.

With `Cc1cc(C)n2nc(S(=O)(=O)Nc3cccc(Cl)c3Cl)nc2n1` [Compound 19], the plant injury at 280.212 g/ha in [1] amounted to 90%; in assay [2] it was 95%; in assay [3] it was 20%; in [4] it was 90%; in assay [8], 0%; in assay [9], 20%. For the same compound, the plant injury at 280.212 g/ha in assay [10] and in assay [11] was 0% throughout. Further, the pest or weed control at 280.212 g/ha in assay [5] came out at 0%; in assay [6], 50%; in assay [18] it was 90%; in assay [7], 70%; in assay [12], 0%; in assay [13], 20%. Besides, the pest or weed control at 280.212 g/ha in [14] worked out at 0%; in [15] it was 0%; in [16], 0%; in assay [17] it was 40%.

Source of the values: patent publication US4740233A, “Substituted 1,2,4-triazolo[1,5-a]-pyrimidine-2-sulfonamides and compositions and methods of controlling undesired vegetation and suppressing the nitrification of ammonium nitrogen in soil” (The Dow Chemical Company, priority 1986, dated 1988).
